SMILES: CC(=O)NCC[C@@H]1CCc2ccc3c(c21)CCO3
- melting point: 118 to 120 °C

Reference: patent US20120309823A1, “PERCUTANEOUS ABSORPTION PREPARATIONS” (priority 1999, published 2012)
